Reference: patent US20200385371A1 (Propellon Therapeutics Inc., priority 2017, published 2020)

Experiments:
WDR5 [1] = target: T1, WDR5 (Homo sapiens, UniProt P61964); test: Surface Plasmon Resonance (SPR) assay; type: binding; set-up: Full length WDR5 with an N-terminal His tag and C-terminal AviTag; His tag (N); made in house; host or cells: E. coli; details: read-out: SPR Kd
In short: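 Full-length biotinylated WDR5 (N-His, C-AviTag, E. coli) captured (~3000 RU) on streptavidin SA chip; Biacore T200. HBS-EP pH 7.4 plus 5% DMSO running buffer, 40 μl/min.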

MV4-11 cells = test: Cell proliferation assay (ATPlite); type: cell-based; details: Homo sapiens, 120 h; MV4-11 cells, five days; read-out: GI MV411 EC50
In short: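 Cells seeded at 1,000/well in Alpha-MEM with 10% FBS, treated with compound over a 10-point range (top 10 μM) or DMSO. Grown five days at 37° C, 5% CO2; viability by ATPlite luminescence.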

WDR5 [2] = target: T1, WDR5; test: Fluorescence Polarization (FP) binding assay
In short: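 Displacement of fluorescein-labelled H3 (1-15) (30 nM, with 0.3 μM WDR5) or 9-Ala-FAM (20 nM, with 0.05 μM WDR5) in 80 mM sodium phosphate pH 6.5, 20 mM KCl, 0.008% Triton X-100. FP read at 485/528 nm (H3) or 480/540 nm (9-Ala-FAM); Kdisp from hyperbolic fit, mean of quadruplicates.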

Row | Structure (SMILES) | Kd (WDR5 [1]) | EC50 (MV4-11 cells) | IC50 (WDR5 [2])
1 | C[C@@H]1CN(c2cc(F)c(-c3cnc(N4C[C@H]5CC[C@@H](C4)O5)nc3)c(F)c2NC(=O)c2c[nH]c(=O)cc2C(F)(F)F)C[C@H](C)N1C [Example 90, N-(3-(2-((R,5S)-8-oxa-3-azabicyclo[3.2.1]octan-3-yl)pyrimidin-5-yl)-2,4-difluoro-6-((3S,5R)-3,4,5-trimethylpiperazin-1-yl)phenyl)-6-oxo-4-(trifluoromethyl)-1,6-dihydropyridine-3-carboxamide] | 0.89 nM | 29.9 nM | 15 nM
2 | C[C@H]1CN(c2cc(F)c(C3=CCN(c4ncc(F)cn4)C3)c(F)c2NC(=O)c2c[nH]c(=O)cc2C(F)F)CCN1C [Example 91, (S)-4-(difluoromethyl)-N-(6-(3,4-dimethylpiperazin-1-yl)-2,4-difluoro-3-(1-(5-fluoropyrimidin-2-yl)-2,5-dihydro-1H-pyrrol-3-yl)phenyl)-6-oxo-1,6-dihydropyridine-3-carboxamide] | 1.55 nM | 38.3 nM | 16 nM
3 | C[C@H]1CN(c2cc(F)c(C3=CCN(C(=O)OC4(C)CCC4)CC3)c(F)c2NC(=O)c2c[nH]c(=O)cc2C(F)F)CCN1C [Example 92, 1-Methylcyclobutyl(S)-4-(3-(4-(difluoromethyl)-6-oxo-1,6-dihydropyridine-3-carboxamido)-4-(3,4-dimethylpiperazin-1-yl)-2,6-difluorophenyl)-3,6-dihydropyridine-1(2H)-carboxylate] | 2.79 nM | 22.8 nM | 15.6 nM
4 | C[C@H]1CN(c2cc(F)c(C3=CCN(C(=O)OC4(C)CCC4)CC3)c(F)c2NC(=O)c2c[nH]c(=O)cc2C(F)(F)F)CCN1C [Example 93, 1-Methylcyclobutyl(S)-4-(4-(3,4-dimethylpiperazin-1-yl)-2,6-difluoro-3-(6-oxo-4-(trifluoromethyl)-1,6-dihydropyridine-3-carboxamido)phenyl)-3,6-dihydropyridine-1(2H)-carboxylate] | 2.15 nM | 19.4 nM | 15.4 nM
5 | C[C@H]1CN(c2cc(F)c(C3=CCCN(C(=O)OC4(C)CCC4)C3)c(F)c2NC(=O)c2c[nH]c(=O)cc2C(F)F)CCN1C [Example 94, 1-Methylcyclobutyl (S)-5-(3-(4-(difluoromethyl)-6-oxo-1,6-dihydropyridine-3-carboxamido)-4-(3,4-dimethylpiperazin-1-yl)-2,6-difluorophenyl)-3,6-dihydropyridine-1(2H)-carboxylate] | 2.17 nM | 93.9 nM | 17.4 nM
6 | C[C@H]1CN(c2cc(F)c(C3=CCN(c4ncc(C#N)s4)C3)c(F)c2NC(=O)c2c[nH]c(=O)cc2C(F)F)CCN1C [Example 95, (S)—N-(3-(1-(5-cyanothiazol-2-yl)-2,5-dihydro-1H-pyrrol-3-yl)-6-(3,4-dimethylpiperazin-1-yl)-2,4-difluorophenyl)-4-(difluoromethyl)-6-oxo-1,6-dihydropyridine-3-carboxamide] | 0.79 nM | 96.4 nM | 13.8 nM
7 | C[C@H]1CN(c2cc(F)c(C3=CCN(c4ncc(C#N)s4)C3)c(F)c2NC(=O)c2c[nH]c(=O)cc2C(F)(F)F)CCN1C [Example 96, (S)—N-(3-(1-(5-cyanothiazol-2-yl)-2,5-dihydro-1H-pyrrol-3-yl)-6-(3,4-dimethylpiperazin-1-yl)-2,4-difluorophenyl)-6-oxo-4-(trifluoromethyl)-1,6-dihydropyridine-3-carboxamide] | 0.51 nM | 70.1 nM | 11.9 nM
8 | C[C@H]1CN(c2cc(F)c(C3=CCN(c4ncc(C#N)s4)CC3)c(F)c2NC(=O)c2c[nH]c(=O)cc2C(F)F)CCN1C [Example 97, (S)—N-(3-(1-(5-cyanothiazol-2-yl)-1,2,3,6-tetrahydropyridin-4-yl)-6-(3,4-dimethylpiperazin-1-yl)-2,4-difluorophenyl)-4-(difluoromethyl)-6-oxo-1,6-dihydropyridine-3-carboxamide] | 0.78 nM | 138 nM | 13.6 nM
9 | C[C@H]1CN(c2cc(F)c(C3=CCN(c4ncc(C#N)s4)CC3)c(F)c2NC(=O)c2c[nH]c(=O)cc2C(F)(F)F)CCN1C [Example 98, (S)—N-(3-(1-(5-cyanothiazol-2-yl)-1,2,3,6-tetrahydropyridin-4-yl)-6-(3,4-dimethylpiperazin-1-yl)-2,4-difluorophenyl)-6-oxo-4-(trifluoromethyl)-1,6-dihydropyridine-3-carboxamide] | 0.77 nM | 97.7 nM | 13.1 nM
10 | C[C@H]1CN(c2cc(F)c(C3=CCCN(c4ncc(C#N)s4)C3)c(F)c2NC(=O)c2c[nH]c(=O)cc2C(F)F)CCN1C [Example 99, (S)—N-(3-(1-(5-cyanothiazol-2-yl)-1,2,5,6-tetrahydropyridin-3-yl)-6-(3,4-dimethylpiperazin-1-yl)-2,4-difluorophenyl)-4-(difluoromethyl)-6-oxo-1,6-dihydropyridine-3-carboxamide] | 1.62 nM | 169 nM | 14.7 nM
11 | C[C@H]1CN(c2cc(F)c(C3=CCCN(c4ncc(C#N)s4)C3)c(F)c2NC(=O)c2c[nH]c(=O)cc2C(F)(F)F)CCN1C [Example 100, (S)—N-(3-(1-(5-cyanothiazol-2-yl)-1,2,5,6-tetrahydropyridin-3-yl)-6-(3,4-dimethylpiperazin-1-yl)-2,4-difluorophenyl)-6-oxo-4-(trifluoromethyl)-1,6-dihydropyridine-3-carboxamide] | 1.45 nM | 181 nM | 11.9 nM
12 | C[C@@H]1CN(c2cc(F)c(-c3cnc(N4CCO[C@@H](C)C4)nc3)c(F)c2NC(=O)c2c[nH]c(=O)cc2C(F)(F)F)C[C@H](C)N1C [Example 101, N-(2,4-difluoro-3-(2-((S)-2-methylmorpholino)pyrimidin-5-yl)-6-((3S,5R)-3,4,5-trimethylpiperazin-1-yl)phenyl)-6-oxo-4-(trifluoromethyl)-1,6-dihydropyridine-3-carboxamide] | 6.17 nM | 11.8 nM | 21 nM
13 | CC(C)[C@H]1CN(c2ncc(-c3c(F)cc(N4CCN(C)[C@@H](C)C4)c(NC(=O)c4c[nH]c(=O)cc4C(F)(F)F)c3F)cn2)CCO1 [Example 102, N-(6-((S)-3,4-dimethylpiperazin-1-yl)-2,4-difluoro-3-(2-((S)-2-isopropylmorpholino)pyrimidin-5-yl)phenyl)-6-oxo-4-(trifluoromethyl)-1,6-dihydropyridine-3-carboxamide] | 0.44 nM | 14.3 nM | 11.7 nM
14 | CC(C)[C@H]1CN(c2ncc(-c3c(F)cc(N4C[C@@H](C)N(C)[C@@H](C)C4)c(NC(=O)c4c[nH]c(=O)cc4C(F)(F)F)c3F)cn2)CCO1 [Example 103, N-(2,4-difluoro-3-(2-((S)-2-isopropylmorpholino)pyrimidin-5-yl)-6-((3S,5R)-3,4,5-trimethylpiperazin-1-yl)phenyl)-6-oxo-4-(trifluoromethyl)-1,6-dihydropyridine-3-carboxamide] | 5.01 nM | 14.7 nM | 17.7 nM
15 | CC(C)[C@@H]1CN(c2ncc(-c3c(F)cc(N4CCN(C)[C@@H](C)C4)c(NC(=O)c4c[nH]c(=O)cc4C(F)(F)F)c3F)cn2)CCO1 [Example 104, N-(6-((S)-3,4-dimethylpiperazin-1-yl)-2,4-difluoro-3-(2-((R)-2-isopropylmorpholino)pyrimidin-5-yl)phenyl)-6-oxo-4-(trifluoromethyl)-1,6-dihydropyridine-3-carboxamide] | 2.25 nM | 20.3 nM | 16.5 nM
16 | CC(C)[C@@H]1CN(c2ncc(-c3c(F)cc(N4C[C@@H](C)N(C)[C@@H](C)C4)c(NC(=O)c4c[nH]c(=O)cc4C(F)(F)F)c3F)cn2)CCO1 [Example 105, N-(2,4-difluoro-3-(2-((R)-2-isopropylmorpholino)pyrimidin-5-yl)-6-((3S,5R)-3,4,5-trimethylpiperazin-1-yl)phenyl)-6-oxo-4-(trifluoromethyl)-1,6-dihydropyridine-3-carboxamide] | 3.89 nM | 14.3 nM | 14.7 nM
17 | C[C@H]1CN(c2cc(F)c(C3=CCN(c4ccnc(C#N)n4)C3)c(F)c2NC(=O)c2c[nH]c(=O)cc2C(F)F)CCN1C [Example 106, (S)—N-(3-(1-(2-cyanopyrimidin-4-yl)-2,5-dihydro-1H-pyrrol-3-yl)-6-(3,4-dimethylpiperazin-1-yl)-2,4-difluorophenyl)-4-(difluoromethyl)-6-oxo-1,6-dihydropyridine-3-carboxamide] | 0.93 nM | 27.6 nM | 15 nM
18 | C[C@H]1CN(c2cc(F)c(C3=CCN(c4ccnc(C#N)n4)C3)c(F)c2NC(=O)c2c[nH]c(=O)cc2C(F)(F)F)CCN1C [Example 107, (S)—N-(3-(1-(2-cyanopyrimidin-4-yl)-2,5-dihydro-1H-pyrrol-3-yl)-6-(3,4-dimethylpiperazin-1-yl)-2,4-difluorophenyl)-6-oxo-4-(trifluoromethyl)-1,6-dihydropyridine-3-carboxamide] | 2.62 nM | 60.1 nM | 14.3 nM
